From patent US11518760B2 (Liverpool School of Tropical Medicine, priority 2017, dated 2022)

Assays:
[1] = tested on: Wolbachia in adult male Onchocerca ochengi; experiment: Adult Onchocerca ochengi mouse model, Wolbachia wsp qPCR; format: in vivo; conditions: CB.17(BALB/c) SCID mice implanted with male O. ochengi, oral
Excerpt: Viable male Onchocerca ochengi were aseptically isolated from naturally parasitized cattle. Between 10-11 male Onchocerca were surgically implanted into the peritoneal cavity of CB.17(BALB/c) SCID mice under anaesthesia. […] 38 Days after O. ochengi surgical implantation, mice were necropsied to recover the live worms. Genomic DNA was extracted from individual adult worms (10/group) and quantification of the O. ochengi-specific Wolbachia surface protein (wsp) performed by quantitative PCR. Data in Table 6 is expressed as a reduction in Wolbachia load in comparison to the vehicle control group.

[2] = tested on: Wolbachia in adult Brugia malayi; experiment: Adult Brugia malayi mouse model, Wolbachia wsp qPCR; format: in vivo
Excerpt: (§1) In an adult Brugia malayi mouse model treatment groups (BALB/c CCR3−/− mice, 6-8 week old) received compounds by oral delivery for 7-28 days beginning at 6-10 weeks post-infection intraperitoneal with Brugia malayi third-stage larvae. Following treatment, at 12 weeks past-infection, adult worms and released microfilariae were recovered from the peritoneal cavity, counted and staged for sex. Genomic DNA was extracted from individual adult worms (10/group) and quantification of the Wolbachia surface protein (wBm-wsp) performed by quantitative PCR.
Treatment dosage unit is mg/kg (MK) and duration stated in days (d). Abbreviations: MIN (minocycline), bid (twice daily), Ms (mesylate). Data in Table 5A are expressed as a reduction in Wolbachia load in comparison to the vehicle control group.
(§2) Table 5B provides a comparison of two stereoisomers in the adult Brugia malayi mouse model above at a range of doses and durations of treatment. Data in Table 5B are expressed as a reduction in Wolbachia load in comparison to the vehicle control group.

[3] = tested on: Brugia malayi microfilariae; experiment: Adult Brugia malayi mouse model, microfilaria production; format: in vivo; conditions: Table 5B
Excerpt: as §1, §2

[4] = tested on: Wolbachia in Brugia malayi larvae; experiment: Larval Brugia malayi mouse model, Wolbachia wsp qPCR; format: in vivo; conditions: BALB/c IL4Rα−/− mice, oral, larvae recovered 14 days post-infection
Excerpt: In a larval Brugia malayi mouse model treatment groups (BALB/c IL4Rα−/− mice, 6-8 week old) received compounds by oral delivery for 7 to 14 days commencing on the day of intraperitoneal infection with Brugia malayi third-stage larvae. At 14 days post-infection, larvae were recovered from the peritoneal cavity, counted, and length measured. Genomic DNA was extracted from individual worms (10/group) and quantification of the Wolbachia surface protein (wBm-wsp) gene copy numbers performed by quantitative PCR.
Treatment dosage unit is mg/kg (MK) and duration stated in days (d). Abbreviations: DOX (doxycycline), bid (twice daily), Ms (mesylate). Data in Table 4 are expressed as a reduction in Wolbachia load in comparison to the vehicle control group.

[5] = tested on: Wolbachia of the target parasite, Brugia malayi; experiment: In vitro microfilariae (Mf) Brugia malayi screen, wsp/gst qPCR; format: cell-based; conditions: B. malayi Mf, 6 days
Procedure: An in vitro microfilariae (Mf) assay was used to screen against Wolbachia of the target parasite, Brugia malayi. The Mf were obtained by peritoneal lavage of gerbils (Meriones unguiculatus) harbouring a patent infection of Brugia malayi as described previously (Griffiths et al., 2010, Lab Animal).
Mf were purified using a PD-10 desalting column (Fisher) followed by centrifugation (1200 rpm for 5 minutes at room temperature) then re-suspended in filter-sterilised culture medium consisting of RPMI supplemented with heat-inactivated Foetal Calf Serum (HI-FCS), 1% Penicillin-Streptomycin and 1% Amphotericin B.
After determining the concentration of Mf, the stock solution was diluted in culture medium to ensure a final concentration of 8000 Mf/well of a 96 well plate (100 μl per well). Compounds to be tested (10 mM stock in 100% DMSO) were diluted to appropriate working concentrations in culture medium and 100 μl was added to the appropriate wells of the 96 well plate containing the Mf. Five replicates were used for each compound and each plate contained doxycycline (5 μM) and vehicle (DMSO) controls. The plates were incubated at 37° C., 5% CO2, for 6 days.
On day 6, a visual assessment of motility was performed and wells scored from 0 to 4 (where 0=no movement and 4=highly motile) in order to assess whether there were any direct effects against the Mf. To perform the anti-Wolbachia readout, DNA was extracted from each individual well using the QIAmp DNA Mini Kit (Qiagen) ‘DNA Purification from Tissues’ protocol.
The number of Wolbachia present in Mf was assessed by quantification of the Wolbachia surface protein (wsp) gene copy number and normalised to the nematode glutathione S-transferase (gst) gene by qPCR based on methods described by McGarry et al., 2004, Mol Biochem Parasitol. DNA samples were amplified in duplicate in the following 20 μl reactions containing 1× QuantiTect SYBR Green PCR master mix (Qiagen): for wsp, 0.3 μM each of forward ([…]) and reverse ([…]) primer, 3 mM MgCl2 and 2 μl of DNA. For gst, 0.35 μM of forward ([…]) and reverse primer (ATCACGGACGCCTTCACAG), 3.5 mM MgCl2 and 1 μl of DNA. qPCR was performed using the Bio-Rad CFX384 C1000 thermal cycler (Bio-Rad laboratories LTD) with a denaturation step of 95° C. for 15 min then 40 cycles at 95° C. for 15 s, 57° C. (gst) or 60° C. (wsp) for 30 s, and 72° C. for 30 s. Quantification was determined by Bio-Rad CFX manager software by comparing the DNA samples to that of a standard curve generated from serial dilution of plasmid DNA of the appropriate gene. Data in Table 3 are expressed as a reduction in Wolbachia load in comparison to the vehicle control group and normalized by positive control (doxycycline at 5 μM).

[6] = dose/duration stands in the drawing (not visible)
[7] = Table 5B, two stereoisomers at a range of doses and durations, dose/duration stands in the drawing (not visible)
[8] = two stereoisomers at a range of doses and durations, dose/duration stands in the drawing (not visible)

## C[C@H]1COCCN1c1nc(NCc2cccnc2C(F)(F)F)c2cccnc2n1 [drawing 702]
[1]; [6]
  % Wolbachia reduction cf median Vehicle: 96.2%

## C[C@@H]1COCCN1c1nc(NCc2cccnc2C(F)(F)F)c2cccnc2n1 [drawing 698]
[2]; [7]
  % Wolbachia reduction cf median Vehicle: 99.7%
[3]; [8]
  % Microfilaria (Mf) production reduction cf median Vehicle: 100%

## C[C@H]1COCCN1c1nc(NCc2cccnc2C(F)(F)F)c2cccnc2n1 [drawing 697]
[2]; [7]
  % Wolbachia reduction cf median Vehicle: 97.8%
[3]; [8]
  % Microfilaria (Mf) production reduction cf median Vehicle: 100%

## C[C@@H]1COCCN1c1nc(NCc2cccnc2C(F)(F)F)c2cccnc2n1 [drawing 700]
[2]; [7]
  % Wolbachia reduction cf median Vehicle: 86.8%
[3]; [8]
  % Microfilaria (Mf) production reduction cf median Vehicle: 100%

## CN(C)c1ccc(O)c2c1C[C@H]1C[C@H]3[C@H](N(C)C)C(O)=C(C(N)=O)C(=O)[C@@]3(O)C(O)=C1C2=O [MIN, minocycline, reference compound]
[2]; Table 5A, BALB/c CCR3−/− mice, oral, 25 MK bid + 28 d, worms recovered 12 weeks post-infection
  % Wolbachia reduction cf median Vehicle: 83.6%
[2]; Table 5B, BALB/c CCR3−/− mice, oral, 25 MK bid + 28 d treatment + 14 d wash-out
  % Wolbachia reduction cf median Vehicle: 98.2%
[3]; BALB/c CCR3−/− mice, oral, 25 MK bid + 28 d treatment + 14 d wash-out
  % Microfilaria (Mf) production reduction cf median Vehicle: 100%

## FC1(F)CCN(c2nc(NCc3cccnc3C(F)(F)F)c3cccnc3n2)CC1 [drawing 690]
[4]; [6]
  % Wolbachia reduction cf median Vehicle: 99.84%

## C[C@H]1c2cccc(O)c2C(=O)C2=C(O)[C@]3(O)C(=O)C(C(N)=O)=C(O)[C@@H](N(C)C)[C@@H]3[C@@H](O)[C@@H]21 [DOX, doxycycline, reference compound]
[5]; 500 nM
  % Reduction level normalised to DOX (5 μm): 92.9%
  % Wolbachia reduction cf. DMSO: 80.0%
[5]; 5 μM
  % Reduction level normalised to DOX (5 μm): 100.0%
  % Wolbachia reduction cf. DMSO: 89.6%
[1]; 25 MK bid + 28 d
  % Wolbachia reduction cf median Vehicle: 98.7%
[4]; 25 MK bid + 14 d
  % Wolbachia reduction cf median Vehicle: 99.05%

## CC1COCCN1c1nc(NCc2cccnc2C(F)(F)F)c2cccnc2n1 (stereo not shown) [drawing 689]
[4]; [6]
  % Wolbachia reduction cf median Vehicle: 99.91%

## CC(C)N(C)c1nc(NCc2cccnc2C(F)(F)F)c2cccnc2n1 [drawing 688]
[4]; [6]
  % Wolbachia reduction cf median Vehicle: 99.99%
